Measured values as given in patent US20240358842A1, “PROTEIN STABILIZING COMPOUNDS CONTAINING USP7 LIGANDS” (Stablix, Inc., priority 2021, published 2024).
Like-named read-outs stand apart in the source and are kept apart here. One block for each compound: values may come before it.

Assays:
[1] = target: T1, USP7 CD + UBL 1-5 (Homo sapiens, UniProt Q93009); assay: Surface plasmon resonance assay (SPR); assay type: binding
T1 construct: USP7 CD +
Description: The surface plasmon resonance experiments were performed using a Cytiva (formerly GE Healthcare) Biacore 8K equipped with a Series S Sensor Chip SA. The ligands were immobilized via a biotin-modified biotin acceptor peptide. USP7 Ligands were diluted in running buffer (HBS-P+2% DMSO; 10 mM HEPES, pH 7.4, 150 mM NaCl, 1 mM DTT, 0.05% P20, 2% DMSO) to 100 μg/mL and injected at […] until a density between 500-10,000 RU was reached on flow-cell two of each channel, and flow cell one was left blank to serve as a reference surface. Both surfaces were washed until a stable baseline was achieved then 30 startup cycles to condition the surface. To collect kinetic and steady-state binding data, the small molecule analytes were prepared in three-fold dilution series in HBS-P+2% DMSO running buffer. Analytes were injected over both flow cells at a flow rate of […] at 25° C. The complex was allowed to associate for 60 seconds and dissociate for 300 seconds. Data were collected at 10 Hz. The data were fit to a simple 1:1 interaction model global data analysis within Cytiva Biacore Insight Evaluation Software.

[2] = target: USP7 (Homo sapiens, UniProt Q93009); assay: Ub-Rho cleavage assay; assay type: biochemical
Sequence of USP7 (Q93009 whole entry): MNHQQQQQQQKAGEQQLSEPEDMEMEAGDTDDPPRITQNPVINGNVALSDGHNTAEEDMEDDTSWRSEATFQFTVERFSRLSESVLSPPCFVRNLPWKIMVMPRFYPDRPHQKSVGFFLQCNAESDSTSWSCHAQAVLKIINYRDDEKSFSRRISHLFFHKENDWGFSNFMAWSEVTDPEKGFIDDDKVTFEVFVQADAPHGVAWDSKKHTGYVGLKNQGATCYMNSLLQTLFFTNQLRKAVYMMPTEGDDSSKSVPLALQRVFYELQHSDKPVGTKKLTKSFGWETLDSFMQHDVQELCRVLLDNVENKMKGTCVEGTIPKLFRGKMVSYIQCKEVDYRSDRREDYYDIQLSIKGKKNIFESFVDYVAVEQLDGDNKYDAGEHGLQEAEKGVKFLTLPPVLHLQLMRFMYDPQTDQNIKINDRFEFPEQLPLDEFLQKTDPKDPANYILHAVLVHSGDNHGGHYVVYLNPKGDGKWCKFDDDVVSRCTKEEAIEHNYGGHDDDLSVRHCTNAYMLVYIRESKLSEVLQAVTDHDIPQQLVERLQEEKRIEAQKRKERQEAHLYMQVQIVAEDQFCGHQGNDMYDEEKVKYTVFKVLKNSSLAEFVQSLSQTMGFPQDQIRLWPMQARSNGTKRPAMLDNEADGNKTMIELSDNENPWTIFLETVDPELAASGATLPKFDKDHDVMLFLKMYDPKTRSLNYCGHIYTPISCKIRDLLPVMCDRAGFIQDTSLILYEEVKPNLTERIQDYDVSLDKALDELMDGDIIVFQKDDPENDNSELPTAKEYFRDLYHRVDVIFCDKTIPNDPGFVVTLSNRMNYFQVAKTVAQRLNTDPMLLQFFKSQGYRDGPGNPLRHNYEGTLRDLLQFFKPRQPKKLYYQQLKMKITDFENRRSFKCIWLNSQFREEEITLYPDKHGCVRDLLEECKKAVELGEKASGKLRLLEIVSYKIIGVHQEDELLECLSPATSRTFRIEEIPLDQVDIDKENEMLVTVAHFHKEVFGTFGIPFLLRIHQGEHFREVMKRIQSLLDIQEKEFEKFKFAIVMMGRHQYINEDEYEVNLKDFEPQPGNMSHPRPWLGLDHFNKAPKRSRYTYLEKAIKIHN
Description: All fluorescence measurements were performed on a Molecular Devices FlexStation3 with excitation at 480 nm and emission 540 nm, PMT Gain: Medium, Flash Number: 10. […] Assay buffer for all measurements was 50 mM HEPES, 100 mM NaCl, 0.5 mM EDTA, 1 mM TCEP, 0.1 mg/ml BSA, 0.01% Tween-20, pH 7.8. […] Serial dilutions were made with a Mosquito HTS (SPT Labtech) nanoliter liquid handler. 200 nL of each compound in duplicate or DMSO control were transferred to the assay plate. The first two columns served as positive controls. 9.8 μl per well of USP7 working solution was added to the assay plate. Compound+Protein was incubated for 25 min at 25° C. 10 uL of Ub-Rho substrate was added per well and incubated for an additional 15 min at 25° C. Fluorescence was then measured. Percent response relative to DMSO controls was calculated in GraphPad or Scinamic, and the data was fitted to a non-linear regression to determine IC50 values.

[3] = kinetic KD, read-out: SPR USP7 CD + UBL 1-5 (KD_kinetic)
[4] = steady-state KD, read-out: SPR USP7 CD + UBL 1-5 (KD_ss)
[5] = Ub-Rho substrate, recombinant USP7, read-out: Ub (Rho) USP7.1 (IC50)

T1 sequence (Q93009 208-1102 limits assumed): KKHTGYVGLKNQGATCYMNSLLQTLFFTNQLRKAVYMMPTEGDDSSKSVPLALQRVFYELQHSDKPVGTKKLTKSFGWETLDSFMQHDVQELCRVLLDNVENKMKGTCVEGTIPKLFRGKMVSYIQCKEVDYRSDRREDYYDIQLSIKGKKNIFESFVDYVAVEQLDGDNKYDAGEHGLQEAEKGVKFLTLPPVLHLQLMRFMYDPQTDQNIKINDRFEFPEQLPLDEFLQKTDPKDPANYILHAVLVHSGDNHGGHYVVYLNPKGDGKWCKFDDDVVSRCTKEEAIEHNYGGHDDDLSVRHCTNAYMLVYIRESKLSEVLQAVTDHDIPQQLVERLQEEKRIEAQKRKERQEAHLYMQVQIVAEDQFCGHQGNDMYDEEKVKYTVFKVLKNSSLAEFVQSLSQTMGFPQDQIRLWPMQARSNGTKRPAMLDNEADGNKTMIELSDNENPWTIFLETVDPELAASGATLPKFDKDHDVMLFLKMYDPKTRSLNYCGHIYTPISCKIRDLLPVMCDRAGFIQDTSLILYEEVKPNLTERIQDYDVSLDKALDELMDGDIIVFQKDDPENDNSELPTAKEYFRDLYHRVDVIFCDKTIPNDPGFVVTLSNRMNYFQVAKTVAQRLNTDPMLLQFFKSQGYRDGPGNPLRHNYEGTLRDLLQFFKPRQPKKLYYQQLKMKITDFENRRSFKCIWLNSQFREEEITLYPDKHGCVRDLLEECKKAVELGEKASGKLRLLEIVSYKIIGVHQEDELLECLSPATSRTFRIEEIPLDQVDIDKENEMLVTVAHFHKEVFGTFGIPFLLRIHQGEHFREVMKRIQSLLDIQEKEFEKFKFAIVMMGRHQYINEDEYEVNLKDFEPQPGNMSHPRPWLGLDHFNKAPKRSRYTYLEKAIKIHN

Kd [1, 3]: < 1000 nM
Kd [1, 4]: < 1000 nM
IC50 [2, 5]: < 1 µM
Compound: C[C@H](CC(=O)N1CCC(O)(Cn2cnc3c(C#CCO)csc3c2=O)CC1)c1ccccc1 [U1]

Kd [1, 3]: 1000 to 100000 nM
Kd [1, 4]: 1000 to 100000 nM
IC50 [2, 5]: 1 to 100 µM
Compound: C[C@H](CC(=O)N1CCC(O)(Cn2cnc3cc(Br)ccc3c2=O)CC1)c1ccccc1 [U3]

Kd [1, 4]: 1000 to 100000 nM
IC50 [2, 5]: 1 to 100 µM
Compound: C[C@H](CC(=O)N1CCC(O)(Cn2cnc3cc(Cl)ccc3c2=O)CC1)c1ccccc1 [U4]

Kd [1, 3]: < 1000 nM
Kd [1, 4]: < 1000 nM
IC50 [2, 5]: < 1 µM
Compound: C[C@H](CC(=O)N1CCC(O)(Cn2cnc3cc(N(C)CCN(C)CCCNC(=O)OC(C)(C)C)ccc3c2=O)CC1)c1ccccc1 [U5]

Kd [1, 3]: < 1000 nM
Kd [1, 4]: < 1000 nM
IC50 [2, 5]: < 1 µM
Compound: C[C@H](CC(=O)N1CCC(O)(Cn2cnc3cc(NCCN(C)CCCNC(=O)OC(C)(C)C)ccc3c2=O)CC1)c1ccccc1 [U6]

Kd [1, 3]: 1000 to 100000 nM
Kd [1, 4]: 1000 to 100000 nM
IC50 [2, 5]: 1 to 100 µM
Compound: CCc1c(-c2ccc(C(=O)NCCCNC(=O)OC(C)(C)C)nc2)cnc(N)c1-c1ccc(O)cc1 [U7]

Kd [1, 3]: 1000 to 100000 nM
Kd [1, 4]: 1000 to 100000 nM
IC50 [2, 5]: 1 to 100 µM
Compound: CCc1c(-c2ccc3[nH]ncc3c2)cnc(N)c1-c1ccc(O)cc1 [U8]

Kd [1, 3]: 1000 to 100000 nM
Kd [1, 4]: 1000 to 100000 nM
IC50 [2, 5]: 1 to 100 µM
Compound: CCc1c(-c2ccc(C(=O)NCCOCCOCCOCCN=[N+]=[N-])nc2)cnc(N)c1-c1ccc(O)cc1 [U10]

Kd [1, 4]: 1000 to 100000 nM
IC50 [2, 5]: 1 to 100 µM
Compound: CCc1c(-c2ccc(C(=O)NC)cc2)cnc(N)c1-c1ccc(O)cc1 [U11]

Kd [1, 3]: < 1000 nM
Kd [1, 4]: < 1000 nM
IC50 [2, 5]: < 1 µM
Compound: C[C@H](CC(=O)N1CCC(O)(Cn2cnc3c(-c4ccc(CNC(=O)OC(C)(C)C)cc4)n(C)nc3c2=O)CC1)c1ccccc1 [U14]

Kd [1, 4]: 1000 to 100000 nM
IC50 [2, 5]: 1 to 100 µM
Compound: CCc1c(-c2ccc(OCCN)cc2)cnc(N)c1-c1ccc(O)cc1 [U21]

Kd [1, 4]: 1000 to 100000 nM
IC50 [2, 5]: 1 to 100 µM
Compound: Nc1ncc(-c2ccc(O)cc2)cc1-c1ccc(O)cc1 [U24]

Kd ([1]; SPR USP7 CD + UBL 1-5 (KD_ss) [nM], steady-state KD): < 1000 nM
IC50 [2]: < 1 µM
Compound: O=C(C[C@@H](C(F)F)n1ccc(F)n1)N1CCC(O)(Cn2cnc3c(cnn3-c3ccc(F)cc3)c2=O)CC1 [U25]

Kd [1, 4]: 1000 to 100000 nM
Compound: O=C(CCc1ccccc1)N1CCC(O)(Cn2cnc3cc(Cl)ccc3c2=O)CC1 [U26]

Kd [1, 4]: 1000 to 100000 nM
Compound: C=CS(=O)(=O)Nc1ccccc1-c1ccc(C(=O)N2CCC(O)(Cn3cnc4c(cnn4C)c3=O)CC2)cc1 [U27]

Kd [1, 4]: < 1000 nM
IC50 [2, 5]: 1 to 100 µM
Compound: C[C@H](CC(=O)C1CCC(O)(Cn2cnc3cc(C#CCN=[N+]=[N-])ccc3c2=O)CC1)c1ccccc1 (stereo partly drawn) [U28]

Kd [1, 4]: < 1000 nM
IC50 [2, 5]: > 100 µM
Compound: C[C@H](CC(=O)N1CCC(O)(Cn2cnc3cc(C#CCN)ccc3c2=O)CC1)c1ccccc1 [U29]

Kd [1, 4]: 1000 to 100000 nM
IC50 [2, 5]: 1 to 100 µM
Compound: CCc1c(-c2ccc(C(=O)NC)nc2)ccc(CNCCNC(=O)OC(C)(C)C)c1-c1ccc(O)cc1 [U43]

Kd [1, 4]: 1000 to 100000 nM
IC50 [2, 5]: 1 to 100 µM
Compound: CCc1c(-c2ccc(C(=O)NCCOCCOCCOCCNC(=O)OC(C)(C)C)nc2)ccc(N)c1C1=CC=C(O)CC1 [U44]

Kd [1, 4]: 1000 to 100000 nM
IC50 [2, 5]: 1 to 100 µM
Compound: CCc1c(-c2ccc(C(=O)NCCCNC(=O)CCCCNC(=O)OC(C)(C)C)nc2)cnc(N)c1-c1ccc(O)cc1 [U45]

Kd [1, 4]: 1000 to 100000 nM
IC50 [2, 5]: 1 to 100 µM
Compound: CCc1c(-c2ccc(C(=O)NC)nc2)cnc(CNC(=O)OC(C)(C)C)c1-c1ccc(O)cc1 [U47]

Kd [1, 4]: 1000 to 100000 nM
IC50 [2, 5]: > 100 µM
Compound: CCc1c(-c2ccc(C(=O)NC)cc2)cnc(NC(=O)CN)c1-c1ccc(O)cc1 [U48]

Kd [1, 4]: 1000 to 100000 nM
IC50 [2, 5]: 1 to 100 µM
Compound: CCc1c(-c2ccc(C(=O)NCCCNC(=O)CCCCC(=O)OC(C)(C)C)nc2)cnc(N)c1-c1ccc(O)cc1 [U49]

Continued, compound first:

Compound: Cc1cc(Cl)cc(-c2ccnc3cc(CN4C(=O)CCC4=O)sc23)c1OC1CCN(CCCNC(=O)OC(C)(C)C)CC1 [U9]
Kd [1, 3]: < 1000 nM
Kd [1, 4]: < 1000 nM
IC50 [2, 5]: < 1 µM

Compound: Cc1cc(Cl)cc(-c2ccnc3cc(CN4C(=O)CCC4=O)sc23)c1OC1CCN(C(=O)CCNC(=O)OC(C)(C)C)CC1 [U13]
Kd [1, 4]: 1000 to 100000 nM
IC50 [2, 5]: 1 to 100 µM

Compound: Cc1cc(Cl)cc(-c2ccnc3cc(CN4C(=O)CCC4=O)sc23)c1OC1CCN(C(=O)OC(C)(C)C)CC1 [U15]
Kd [1, 3]: 1000 to 100000 nM
Kd [1, 4]: 1000 to 100000 nM
IC50 [2, 5]: > 100 µM

Compound: Cc1cc(Cl)cc(-c2ccnc3cc(CN4C(=O)CCC4=O)sc23)c1OC1CCNCC1 [U16]
Kd [1, 3]: < 1000 nM
Kd [1, 4]: < 1000 nM
IC50 [2, 5]: < 1 µM

Compound: Cc1cc(Cl)cc(-c2ccnc3cc(CN4C(=O)CCC4=O)sc23)c1OC1CCN(C(=O)CN=[N+]=[N-])CC1 [U19]
Kd [1, 4]: < 1000 nM
IC50 [2, 5]: < 1 µM

Compound: C[C@H](CC(=O)N1CCC(O)(CN2C=NC3C(C#CCOCCNC(=O)OC(C)(C)C)=CSC3C2=O)CC1)c1ccccc1 (stereo partly drawn) [U20]
Kd [1, 4]: 1000 to 100000 nM
IC50 [2, 5]: 1 to 100 µM

Compound: Cc1cc(Cl)cc(-c2ccnc3cc(CN4C(=O)CCC4=O)sc23)c1CC1CCN(C(=O)CN)CC1 [U22]
Kd [1, 4]: < 1000 nM
IC50 [2, 5]: < 1 µM

Compound: C[C@H](CC(=O)N1CCC(O)(Cn2cnc3c(C#CCO)n(C)nc3c2=O)CC1)c1ccccc1 [U23]
Kd [1, 4]: < 1000 nM
IC50 [2, 5]: < 1 µM

Compound: Cc1cc(Cl)cc(-c2ccnc3cc(CN4C(=O)CCC4=O)sc23)c1OC1CCN(CCCCCCCNC(=O)OC(C)(C)C)CC1 [U30]
Kd [1, 3]: < 1000 nM
Kd [1, 4]: < 1000 nM
IC50 [2, 5]: < 1 µM

Compound: Cc1cc(Cl)cc(-c2ccnc3cc(CN4C(=O)CCC4=O)sc23)c1OC1CCN(C(=O)CCCCCCCCNC(=O)OC(C)(C)C)CC1 [U31]
Kd [1, 4]: 1000 to 100000 nM
IC50 [2, 5]: > 100 µM

Compound: Cc1cc(Cl)cc(-c2ccnc3cc(CN4C(=O)CCC4=O)sc23)c1OC1CCN(C(=O)CCOCCNC(=O)OC(C)(C)C)CC1 [U32]
Kd [1, 4]: 1000 to 100000 nM
IC50 [2, 5]: 1 to 100 µM

Compound: Cc1cc(Cl)cc(-c2ccnc3cc(CN4C(=O)CCC4=O)sc23)c1OC1CCN(C(=O)CCOCCOCCNC(=O)OC(C)(C)C)CC1 [U33]
Kd [1, 4]: 1000 to 100000 nM
IC50 [2, 5]: 1 to 100 µM

Compound: Cc1cc(Cl)cc(-c2ccnc3cc(CN4C(=O)CCC4=O)sc23)c1OC1CCN(C(=O)CCOCCOCCOCCNC(=O)OC(C)(C)C)CC1 [U34]
Kd [1, 4]: 1000 to 100000 nM
IC50 [2, 5]: 1 to 100 µM

Compound: C[C@H](CC(=O)N1CCC(O)(Cn2cnc3cc(NCCN4CCN(CCCNC(=O)OC(C)(C)C)CC4)ccc3c2=O)CC1)c1ccccc1 [U35]
Kd [1, 4]: < 1000 nM
IC50 [2, 5]: < 1 µM

Compound: C[C@H](CC(=O)N1CCC(O)(Cn2cnc(NCCN3CCN(CCN)CC3)cc2=O)CC1)c1ccccc1 [U37]
Kd [1, 4]: < 1000 nM
IC50 [2, 5]: < 1 µM

Compound: Cn1nc2c(=O)n(CC3(O)CCN(C(=O)C[C@H](c4ccccc4)C(F)(F)F)CC3)cnc2c1Br [U38]
Kd [1, 4]: 1000 to 100000 nM
IC50 [2, 5]: 1 to 100 µM

Compound: Cc1cc(Cl)cc(-c2ccnc3cc(CN4C(=O)CCC4=O)sc23)c1OC1CCN(CCCNC(=O)CCNC(=O)OC(C)(C)C)CC1 [U39]
Kd [1, 4]: < 1000 nM
IC50 [2, 5]: < 1 µM

Compound: Cc1cc(Cl)cc(-c2ccnc3cc(CN4C(=O)CCC4=O)sc23)c1OC1CCN(CCCNC(=O)CCCCCCNC(=O)OC(C)(C)C)CC1 [U40]
Kd [1, 4]: < 1000 nM
IC50 [2, 5]: < 1 µM

Compound: Cc1cc(Cl)cc(-c2ccnc3cc(CN4C(=O)CCC4=O)sc23)c1OC1CCN(CCCNC(=O)CCCCCCCNC(=O)OC(C)(C)C)CC1 [U41]
Kd [1, 4]: < 1000 nM
IC50 [2, 5]: < 1 µM

Compound: C[C@H](CC(=O)N1CCC(O)(Cn2cnc3cc(NC(=O)CCN4CCN(CCN=[N+]=[N-])CC4)ccc3c2=O)CC1)c1ccccc1 [U46]
Kd [1, 4]: < 1000 nM
IC50 [2, 5]: < 1 µM
